The record followed here is PMC8500839, “Structures of outer-arm dynein array on microtubule doublet reveal a motor coordination mechanism” (Nature Structural & Molecular Biology, 2021).

T1: outer-arm dynein intermediate chain IC3 (T. thermophila, UniProt Q23FU1 1-670)
T1 construct: outer-arm dynein intermediate chain 3, T. thermophila, native subunit; source: purified from T. thermophila cilia as a subunit of native OAD (high salt extraction, sucrose gradient, ion exchange)
T1 sequence (looked up): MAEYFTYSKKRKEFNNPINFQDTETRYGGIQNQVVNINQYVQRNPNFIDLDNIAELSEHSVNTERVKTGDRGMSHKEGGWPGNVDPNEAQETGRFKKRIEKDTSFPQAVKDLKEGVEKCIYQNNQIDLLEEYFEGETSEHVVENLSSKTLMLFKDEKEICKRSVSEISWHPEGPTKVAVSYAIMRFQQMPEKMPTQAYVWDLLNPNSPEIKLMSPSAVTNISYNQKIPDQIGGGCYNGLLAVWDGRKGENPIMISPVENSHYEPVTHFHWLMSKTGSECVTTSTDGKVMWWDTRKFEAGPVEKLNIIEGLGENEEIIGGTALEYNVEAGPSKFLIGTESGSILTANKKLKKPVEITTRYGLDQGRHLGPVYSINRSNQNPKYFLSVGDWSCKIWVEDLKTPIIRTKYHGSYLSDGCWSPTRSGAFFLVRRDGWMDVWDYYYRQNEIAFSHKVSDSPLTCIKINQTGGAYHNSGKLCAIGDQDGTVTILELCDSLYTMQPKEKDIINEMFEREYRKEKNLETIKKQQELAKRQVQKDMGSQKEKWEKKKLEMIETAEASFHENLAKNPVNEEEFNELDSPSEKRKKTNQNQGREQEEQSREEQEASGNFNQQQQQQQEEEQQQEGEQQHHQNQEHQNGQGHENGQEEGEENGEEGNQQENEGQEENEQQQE

B1: outer-arm dynein intermediate chain IC2 (natural protein, T. thermophila, UniProt I7M008 1-667, looked up)
chain: MPPKQTKVVASRKTVMPISRAGRAQIRRKDSNTQNNMNDQGMEDEEIDQQREGMKNQYEQLTAQELNEDMPSKMLEPKNPQAPKNITVYDYYTRKFKTDELVDQMIVHFSMDGDYIWKESNEYKTQEEIRDTKKALIKEAMRKQESEEPGANHDEEAIKQTLRNKFNYNTRECQTINPSIRERGVSTEPPPSDTICGNITQWEIFDAYYAEIMKDHQIENKKKKEVDQDKKQDQSMYSTSFKRCCKIMERMVVQNDQEDKYHDYRYYWSQGDNLEAGKNEGHLLPIWRFSNEKQRKKNVTSICWNPLYPDLFAVSLGSYDFTKQRMGLICLYSLKNTTHPEYAFNCEAGVMCLDFHPKSAALLAVGLYDGTVLVYDIRNKHKKPIYQSTVRNQKHTDPVWQVKWNPDTSKNYNFYSISSDGRVMNWILMKNKLEPEEVILLRLVGKNEEESTLIGLACGLCFDFNKFEPHIFLVGTEEGKIHKCSRAYSGQYQETYNGHLLAVYKVKWNNFHPRTFISASADWTVRIWDSKYTSQIICFDLSMMVVDAVWAPYSSTVFACATMDKVQVYDLNVDKLNKLAEQKIVKQPKLTNLSFNYKDPILLVGDSHGGVTLVKLSPNLCKSGPEIKQTEDKKAMEEFKNVKIEDYEREKMENLLAVVSKWEREDA
notes: outer-arm dynein intermediate chain 2, T. thermophila, native subunit; source: purified from T. thermophila cilia as a subunit of native OAD (high salt extraction, sucrose gradient, ion exchange)
B2: Tctex-b (LC2A) (natural protein, T. thermophila, UniProt C0HME8 1-132, looked up)
chain: MKGTYLYLNIYKRKREASLITLNYIKNRFYPSKIQKIIKELFEDRLKGVEYDPNNANQLSERLVLELREKIKRGKVPRYKIGVQVVFGEIKGQGLRIASKCLWDVQNDNYASYTYTSEKVYCTGIVFGCYFE
notes: light chain LC2A, the best hit for the Tctex-b position, T. thermophila; source: purified from T. thermophila cilia as a subunit of native OAD (high salt extraction, sucrose gradient, ion exchange)

The target of assay [1] is T2, α-HC (α-motor domain) of T. thermophila OAD (Tetrahymena thermophila, UniProt Q22A67).
T2 construct: gene TTHERM_01276420; from cilia
The assay is described as follows: cryo-EM structure of OAD-MTD array. Format: binding. The following applies: Mg2+, no nucleotide added (apo state, co-purified).

Assay [2] addresses T3, β-HC (β-motor domain) of T. thermophila OAD (Tetrahymena thermophila, UniProt I7M9J2).
T3 construct: gene TTHERM_00499300; from cilia
In words: cryo-EM structure of OAD-MTD array. The assay is classed as binding. Conditions: Mg2+, no nucleotide added (apo state, co-purified).

The target of assay [3] is T4, γ-HC (γ-motor domain) of T. thermophila OAD (Tetrahymena thermophila, UniProt I7M6H4).
T4 construct: gene TTHERM_00486600; from cilia
In words: cryo-EM structure of OAD-MTD array. The assay is classed as binding. The following applies: Mg2+, no nucleotide added (apo state, co-purified).

The target in assay [4] is T5, outer-arm dynein (OAD) (Tetrahymena thermophila, UniProt I7M6H4+I7M9J2+Q22A67).
T5 construct: gene TTHERM_01276420; native OAD, high-salt extract of axonemes, sucrose gradient and ion exchange; not cross-linked; with Dynein intermediate chain 2; Dynein intermediate chain 3; Dynein light chain LC7-a (LC7A homolog); Dynein light chain LC7B; Dynein light chain LC10; Dynein light chain DLC82; Dynein light chain LC8E; Dynein light chain LC8-2b; Dynein light chain LC8-3a; Dynein light chain LC8-3b; Dynein light chain Tctex-a; Dynein light chain LC2A; Dynein light chain LC4A; Dynein light chain LC3BL; Dynein light chain 1
In words: negative-stain EM of OAD coverage on MTD; microtubule gliding assay. Format: biochemical. The following applies: 1 mM ATP; 45 nM OAD; 20 mM HEPES pH 7.4, 100 mM KCl, 5 mM MgSO4, 1 mM DTT.

The target of assay [5] is T5, outer-arm dynein (OAD). In words: negative-stain EM count of OAD array length / coverage on MTD. Format: biochemical. The following applies: 10 to 1,000 μM ATPγS; slowly hydrolysed; 45 nM OAD; 20 mM HEPES pH 7.4, 100 mM KCl, 5 mM MgSO4, 1 mM DTT.
The target of assay [6] is T1, outer-arm dynein intermediate chain IC3. The assay is described as follows: cryo-EM structure; freshly purified native OAD (not cross-linked) reconstituted on MTD in 20 mM HEPES pH 7.4, 100 mM KCl, 5 mM MgSO4, 1 mM DTT, on ice 45 min; apo state, no docking complex; two classes MTBS-1 and MTBS-2; MTD lattice refined from the same data. The following applies: both partners purified.

Assay [7] deals with B1. Described as above. The following applies: both partners purified.
Where [8] appears, read: sites AAA3 and AAA4 (same state as β-HC).

T2 sequence (Q22A67 1-4620): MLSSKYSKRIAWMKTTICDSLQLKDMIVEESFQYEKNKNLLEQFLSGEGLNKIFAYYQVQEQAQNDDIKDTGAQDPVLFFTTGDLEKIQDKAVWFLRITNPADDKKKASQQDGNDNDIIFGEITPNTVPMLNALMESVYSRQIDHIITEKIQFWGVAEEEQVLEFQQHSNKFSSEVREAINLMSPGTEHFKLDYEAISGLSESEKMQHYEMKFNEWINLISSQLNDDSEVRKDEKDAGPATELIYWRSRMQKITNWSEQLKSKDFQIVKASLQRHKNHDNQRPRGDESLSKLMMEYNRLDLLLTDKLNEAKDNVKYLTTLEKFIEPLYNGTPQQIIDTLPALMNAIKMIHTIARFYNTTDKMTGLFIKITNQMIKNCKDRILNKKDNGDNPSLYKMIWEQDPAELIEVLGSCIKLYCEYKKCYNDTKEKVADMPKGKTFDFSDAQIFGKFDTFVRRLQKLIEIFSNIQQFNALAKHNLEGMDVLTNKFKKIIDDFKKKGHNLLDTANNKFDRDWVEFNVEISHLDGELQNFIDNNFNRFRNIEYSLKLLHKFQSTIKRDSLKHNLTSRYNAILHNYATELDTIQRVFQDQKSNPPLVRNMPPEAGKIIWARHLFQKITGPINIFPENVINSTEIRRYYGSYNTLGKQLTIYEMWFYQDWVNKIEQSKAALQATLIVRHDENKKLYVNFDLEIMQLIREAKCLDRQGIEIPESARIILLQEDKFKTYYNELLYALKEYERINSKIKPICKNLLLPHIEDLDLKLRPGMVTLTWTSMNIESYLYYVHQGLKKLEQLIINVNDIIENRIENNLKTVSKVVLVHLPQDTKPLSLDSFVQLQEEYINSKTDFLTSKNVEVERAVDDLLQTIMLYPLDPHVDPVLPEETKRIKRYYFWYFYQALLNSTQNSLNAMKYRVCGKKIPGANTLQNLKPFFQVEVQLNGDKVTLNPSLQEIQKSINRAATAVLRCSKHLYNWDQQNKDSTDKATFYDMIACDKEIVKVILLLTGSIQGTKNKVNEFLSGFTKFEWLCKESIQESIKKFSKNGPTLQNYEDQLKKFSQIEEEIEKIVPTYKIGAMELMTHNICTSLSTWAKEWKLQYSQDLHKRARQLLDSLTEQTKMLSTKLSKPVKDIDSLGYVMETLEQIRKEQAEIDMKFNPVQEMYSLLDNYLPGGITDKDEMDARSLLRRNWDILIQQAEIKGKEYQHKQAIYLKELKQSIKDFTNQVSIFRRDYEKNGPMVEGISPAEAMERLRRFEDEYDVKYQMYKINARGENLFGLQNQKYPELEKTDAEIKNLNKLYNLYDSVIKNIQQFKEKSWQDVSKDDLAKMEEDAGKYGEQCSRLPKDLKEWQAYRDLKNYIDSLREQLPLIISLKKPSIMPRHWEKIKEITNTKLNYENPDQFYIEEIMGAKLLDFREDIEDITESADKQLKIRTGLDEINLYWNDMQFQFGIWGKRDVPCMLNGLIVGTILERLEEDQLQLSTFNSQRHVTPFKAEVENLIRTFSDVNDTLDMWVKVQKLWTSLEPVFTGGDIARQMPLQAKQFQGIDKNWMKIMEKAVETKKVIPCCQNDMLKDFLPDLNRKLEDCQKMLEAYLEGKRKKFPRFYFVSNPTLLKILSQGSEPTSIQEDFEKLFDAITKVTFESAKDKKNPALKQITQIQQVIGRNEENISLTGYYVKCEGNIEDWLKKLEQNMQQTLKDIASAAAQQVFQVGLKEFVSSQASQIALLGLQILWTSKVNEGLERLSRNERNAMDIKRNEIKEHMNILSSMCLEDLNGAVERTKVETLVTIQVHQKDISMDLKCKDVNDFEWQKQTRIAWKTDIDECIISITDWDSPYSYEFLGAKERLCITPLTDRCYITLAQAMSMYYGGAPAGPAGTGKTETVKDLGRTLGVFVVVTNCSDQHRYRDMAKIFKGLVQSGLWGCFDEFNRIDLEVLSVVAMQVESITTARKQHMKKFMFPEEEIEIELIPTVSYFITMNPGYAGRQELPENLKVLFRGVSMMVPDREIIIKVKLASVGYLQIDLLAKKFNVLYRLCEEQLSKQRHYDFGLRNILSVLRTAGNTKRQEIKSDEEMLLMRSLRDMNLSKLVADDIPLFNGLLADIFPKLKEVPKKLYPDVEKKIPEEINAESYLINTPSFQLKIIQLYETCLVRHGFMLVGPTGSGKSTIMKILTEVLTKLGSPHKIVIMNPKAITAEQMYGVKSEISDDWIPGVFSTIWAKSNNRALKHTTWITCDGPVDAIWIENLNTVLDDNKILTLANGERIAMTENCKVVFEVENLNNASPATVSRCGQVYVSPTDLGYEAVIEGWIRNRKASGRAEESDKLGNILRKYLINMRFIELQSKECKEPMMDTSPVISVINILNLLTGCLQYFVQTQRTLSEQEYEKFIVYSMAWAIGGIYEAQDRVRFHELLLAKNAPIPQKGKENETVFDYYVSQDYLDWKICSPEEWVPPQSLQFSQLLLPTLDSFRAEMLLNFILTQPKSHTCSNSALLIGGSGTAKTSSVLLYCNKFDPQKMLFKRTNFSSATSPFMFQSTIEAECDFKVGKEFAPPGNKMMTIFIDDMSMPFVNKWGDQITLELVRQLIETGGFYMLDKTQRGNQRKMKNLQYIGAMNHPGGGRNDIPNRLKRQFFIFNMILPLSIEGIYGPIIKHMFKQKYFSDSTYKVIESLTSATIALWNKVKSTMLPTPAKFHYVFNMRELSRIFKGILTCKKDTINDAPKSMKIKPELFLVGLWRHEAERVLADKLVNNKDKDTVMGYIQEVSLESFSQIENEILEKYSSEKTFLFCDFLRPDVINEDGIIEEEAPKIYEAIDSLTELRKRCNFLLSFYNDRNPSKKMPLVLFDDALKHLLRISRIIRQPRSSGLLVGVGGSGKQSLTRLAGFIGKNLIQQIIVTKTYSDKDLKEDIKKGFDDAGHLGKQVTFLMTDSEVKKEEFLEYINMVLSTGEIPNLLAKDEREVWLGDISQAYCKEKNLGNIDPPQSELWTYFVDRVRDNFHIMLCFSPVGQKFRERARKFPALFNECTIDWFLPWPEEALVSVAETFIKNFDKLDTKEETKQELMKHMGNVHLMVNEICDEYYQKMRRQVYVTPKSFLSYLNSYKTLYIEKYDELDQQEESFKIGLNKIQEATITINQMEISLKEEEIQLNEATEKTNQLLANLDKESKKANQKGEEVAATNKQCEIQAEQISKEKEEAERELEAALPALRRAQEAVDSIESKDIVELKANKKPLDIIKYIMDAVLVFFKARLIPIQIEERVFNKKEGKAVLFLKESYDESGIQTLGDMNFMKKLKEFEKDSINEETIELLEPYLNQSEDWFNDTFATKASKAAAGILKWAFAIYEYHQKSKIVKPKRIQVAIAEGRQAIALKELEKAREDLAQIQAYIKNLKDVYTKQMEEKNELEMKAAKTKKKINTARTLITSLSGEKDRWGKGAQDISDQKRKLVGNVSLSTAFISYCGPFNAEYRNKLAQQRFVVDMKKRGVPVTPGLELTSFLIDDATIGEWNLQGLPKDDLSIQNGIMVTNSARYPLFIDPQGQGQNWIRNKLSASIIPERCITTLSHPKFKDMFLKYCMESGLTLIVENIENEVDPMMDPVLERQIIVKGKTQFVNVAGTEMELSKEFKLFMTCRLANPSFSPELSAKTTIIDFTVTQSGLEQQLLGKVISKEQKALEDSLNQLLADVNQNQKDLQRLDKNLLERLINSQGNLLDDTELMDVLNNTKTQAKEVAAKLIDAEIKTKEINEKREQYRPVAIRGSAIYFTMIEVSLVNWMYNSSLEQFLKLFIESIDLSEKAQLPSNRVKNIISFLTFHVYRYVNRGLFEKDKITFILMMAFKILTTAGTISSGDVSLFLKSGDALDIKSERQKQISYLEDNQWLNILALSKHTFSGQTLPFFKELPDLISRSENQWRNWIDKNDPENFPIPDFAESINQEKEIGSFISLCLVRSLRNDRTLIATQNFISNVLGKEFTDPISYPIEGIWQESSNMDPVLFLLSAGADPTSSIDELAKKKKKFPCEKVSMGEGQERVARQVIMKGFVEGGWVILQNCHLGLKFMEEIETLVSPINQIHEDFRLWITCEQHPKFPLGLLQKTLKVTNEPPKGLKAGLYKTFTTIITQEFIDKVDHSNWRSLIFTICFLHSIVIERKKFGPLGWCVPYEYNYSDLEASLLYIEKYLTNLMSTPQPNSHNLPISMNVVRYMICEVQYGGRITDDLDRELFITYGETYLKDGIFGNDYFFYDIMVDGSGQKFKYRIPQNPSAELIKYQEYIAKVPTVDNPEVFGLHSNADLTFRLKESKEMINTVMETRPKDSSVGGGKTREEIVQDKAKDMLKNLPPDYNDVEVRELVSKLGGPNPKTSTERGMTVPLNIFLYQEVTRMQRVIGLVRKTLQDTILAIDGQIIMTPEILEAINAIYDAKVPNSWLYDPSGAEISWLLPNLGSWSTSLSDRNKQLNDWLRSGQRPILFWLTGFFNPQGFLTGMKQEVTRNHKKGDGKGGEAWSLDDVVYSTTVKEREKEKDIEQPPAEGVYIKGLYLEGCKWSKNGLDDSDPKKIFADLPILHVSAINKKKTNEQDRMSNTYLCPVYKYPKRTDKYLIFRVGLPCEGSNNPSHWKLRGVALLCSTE

For `Nc1ncnc2c1ncn2[C@@H]1O[C@H](COP(=O)(O)OP(=O)(O)O)[C@@H](O)[C@H]1O` [ADP], the “cryo-EM structure of OAD-MTD array” value in assay [1] (setting [8]) is “Other motor domains have the same nucleotide binding states”; in assay [2] (sites AAA3 and AAA4) it was “ATP in β-AAA2 and ADP in β-AAA3/AAA4 were unambiguously identified from the density”; in assay [3] (setting [8]) it was “Other motor domains have the same nucleotide binding states”.

As to `Nc1ncnc2c1ncn2[C@@H]1O[C@H](COP(=O)(O)OP(=O)(O)OP(=O)(O)O)[C@@H](O)[C@H]1O` [ATP], the “cryo-EM structure of OAD-MTD array” value in assay [1] (site AAA2 (same state as β-HC)) is “Other motor domains have the same nucleotide binding states”; in assay [2] (site AAA2), “ATP in β-AAA2 and ADP in β-AAA3/AAA4 were unambiguously identified from the density”; in assay [3] (site AAA2 (same state as β-HC)), “Other motor domains have the same nucleotide binding states”. For the same molecule, the “negative-stain EM of OAD coverage on MTD; microtubule gliding assay” value at outer-arm dynein (OAD) [4] is “fell off the MTDs in the presence of ATP, ADP·Vi or ATPγS”.

In the case of `Nc1ncnc2c1ncn2[C@@H]1O[C@H](COP(=O)(O)OP(=O)(O)OP(O)(O)=S)[C@@H](O)[C@H]1O` [ATPγS], the “negative-stain EM count of OAD array length / coverage on MTD” value on outer-arm dynein (OAD) [5] is “Using a titration of ATPγS, we were able to gradually shorten OAD arrays in vitro”.

As for B1, the binding result in assay [6] is on record as “binds”.

B2: the binding result in assay [7] and in assay [6] was “binds” in each case.
